Measured values: ChEMBL document CHEMBL1130568, “Antibody-mediated regio- and enantioselective resolution of a glycerol derivative” (Bioorg Med Chem Lett, 1997)

Assay: Kinetic parameter for hydrolysis of 1 by Antibody 2D10 after addition of compound 12
Assay type: ADME

For `CC(=O)O[C@@H](COCc1ccc([N+](=O)[O-])cc1)COP(=O)(O)CCCCCC(=O)O`, the Ki was 2800 nM.
